# Patent publication US20080261870A1, “Use of the Pro-Peptide Domain of Lysyl Oxidase as a Therapeutic Agent” (priority 2004, published 2008)
# Assays:
# [1] = test system: lysyl oxidase mRNA; test: Northern blot analysis of lysyl oxidase mRNA in transfected RS485 clones; assay type: cell-based, mouse; conditions: 150 μM suramin, 24 hours, normalized to 18S rRNA
# Method: To confirm that lysyl oxidase expression is actually diminished by anti-sense lysyl oxidase transfection, the ability of 150 μM suramin to induce low steady state mRNA levels of lysyl oxidase in clones was assessed after 24 hours of treatment by Northern blot analysis with normalization to 18S rRNA signals. Suramin treatment led to an average 8-fold increase in lysyl oxidase mRNA levels in the six empty vector-transfected clones assayed, consistent with previous studies on non-transfected RS485 cells (Palamakumbura et al., 2003). In contrast, an average 1.8-fold increase in lysyl oxidase mRNA levels occurred in the nine anti-sense lysyl oxidase transfected clones, as shown by Northern blot analysis. Thus, the induction of steady state lysyl oxidase mRNA levels by suramin is inhibited by the anti-sense lysyl oxidase transfection, as expected.
# RNA isolation and Northern blot analysis. Total RNA was isolated using the RNeasy —RNA isolation kit (Qiagen, Valencia, Calif.). Ten μg samples of denatured RNA were electrophoresed on a 1% agarose gel containing […]. Gels were transferred in 10×SSC by capillary blotting overnight to Gene Screen nylon membranes (Perkin Elmer Life Science, Boston, Mass.). […] Autoradiograms were assessed and normalized by densitometric scanning on a Versa Doc Model 3000 Gel Documentation System and Quantity One Software (BioRad, Hercules, Calif.). […]
# [2] = test system: lysyl oxidase activity; conditions: previously shown (Palamakumbura et al., 2003); cited from earlier work
# [3] = test system: RS485 cells; test: Growth curves of RS485 cells (crystal violet staining); assay type: cell-based; conditions: for decrease of growth rate: linear regression of log of absorbance vs time
# From the text: Effect of suramin on RS485 cell phenotype. Suramin is a polysulfonated naphthylurea, initially used in the treatment of trypanosomiasis and onchocerciasis (Sullivan et al., 1997). Its anti-cancer activity was later identified, and suramin has been introduced into clinical trials for various forms of cancer (La Rocca et al., 1990(a); La Rocca et al., 1990(b); Song et al., 2001; Small et al., 2000; Garcia-Schurmann et al., 1999). Suramin interrupts autocrine growth factor pathways by inhibiting the binding of growth factors to their receptors (Sullivan et al., 1997; Zanghi et al., 2000; Fukumoto et al., 2000; Mietz et al., 1998; Coffey et al., 1987). Treatment of c-Ha-ras-transformed NIH 3T3 cells (RS485 cell line) with suramin leads to the induction of lysyl oxidase (Palamakumbura et al., 2003). Here we investigated the effects of suramin on the rate of growth and morphology of RS485 cells, as an initial measure of cell phenotype. Cells were plated in 6-well plates and cultured for 24 hours and then grown in the continuous presence of 0, 100, 125, or 150 μM suramin. As control, the growth of phenotypically normal NIH 3T3 cells in the absence of suramin was analyzed at the same time. Cell growth was determined by daily crystal violet staining of replicate wells. RS485 cells grew more rapidly than NIH 3T3 cells, as expected (Chang et al., 1982). […] The growth rate of RS485 cells treated with 150 μM suramin was similar to that of NIH 3T3 cells.
# BAPN-mediated inhibition of lysyl oxidase enzyme activity fails to prevent phenotypic reversion induced by suramin. It has generally been assumed, although never directly tested, that lysyl oxidase dependent phenotypic reversion and tumor suppressor activity depends on its enzyme activity. To directly test the role of lysyl oxidase enzyme activity, we measured the effects of the lysyl oxidase inhibitor, BAPN (Tang et al., 1983), on the phenotypic changes in RS485 cells following treatment with 150 μM suramin. We have previously shown that suramin induces lysyl oxidase activity by about 2.5-fold (Palamakumbura et al., 2003). RS485 cell growth was assessed in the absence or presence of either 150 μM suramin or 400 μM BAPN, or a combination of both 150 μM suramin and 400 μM BAPN.
# (§1) Growth curves. To study cell growth rates, cells were plated in 6-well plates at a density of 35,000 cells/well and were grown in complete medium containing 10% FBS, as described above. Additions of suramin or β-aminopropionitrile (BAPN), when appropriate, were initiated 24 hours after plating. Media were changed every three days in the continuous presence of suramin or BAPN, as indicated for each experimental design in the Results section. Cell density was determined in triplicate every day by crystal violet staining, as described (Kueng et al., 1989; Gillies et al., 1986). Cells were fixed with 10% formalin in PBS, washed with PBS, and then stained for 30 minutes with 0.1% crystal violet at room temperature with shaking. Unbound dye was then removed by washing with water until washes were colorless. Bound dye was then eluted with 10% acetic acid, and quantitated by measuring the absorbance at 590 nm. For quantitative analyses of growth rates, the logarithmic value of absorbance vs time was plotted±standard deviation and the rates were calculated by linear regression analyses. In addition, data were plotted as total absorbance +/−SE vs time. Experiments were performed three times each with consistent findings.
# [4] = test system: RS485 cells; test: Cell cycle analysis (FACS, propidium iodide) of RS485 cells treated with suramin; assay type: cell-based; conditions: 2 days
# Method: We next determined the effects of suramin on cell cycle progression of RS485 cell cultures. […] The proportions of cells in G1 and S phases in cultures treated with 150 μM suramin are nearly identical to untreated phenotypically normal NIH 3T3 cells (Table I). Thus, treatment with 150 μM suramin changed the morphology, cell cycle, and growth rate of RS485 cells resulting in a more normal phenotype.
# (§2) Cell cycle analysis. RS485, NIH 3T3 and PR4 cells were plated on 100 mm plates and were grown until confluent with 0 or 150 μM suramin. Cells (1.5−2×10^6) were then trypsinized, washed with PBS and fixed by washing with ice-cold 70% ethanol. Cells were stained with propidium iodide (50 μg/ml) in PBS containing 2% FBS and was analyzed by flow cytometry using a FACScan flow cytometry with CELLQUEST acquisition and analysis software (Becton Dickinson Co, Bedford, Mass.).
# RS485 cells were grown in the presence of 0, 100, or 150 μM suramin for 2 days. Alternatively, NIH 3T3 cells were grown in the absence of suramin, as control. Cells (1.5−2×10^6) were fixed with 70% ethanol and stained with propidium iodide and analyzed by flow cytometry. Data shown are the averages ±SD of experiments performed three times.
# [5] = test system: transfected RS485 cell clones; test: Cell cycle analysis of anti-sense lysyl oxidase and empty vector transfected RS485 cell clones; assay type: cell-based; conditions: 150 μM suramin, 24 hours
# Method: Inhibition of lysyl oxidase expression reduces phenotypic reversion induced by suramin. […] To determine that the suramin-induced phenotypic changes depend upon lysyl oxidase expression, we generated stable anti-sense lysyl oxidase transfected RS485 cell clones. Nine anti-sense lysyl oxidase transfected clones and six empty vector transfected clones were generated and grown in the presence and absence of 150 μM suramin, and after 24 hours, cells were fixed and subjected to cell cycle analysis. Non-transfected RS485 cells were analyzed as an additional control. Differences in the percentage of cells in G1 and S phase occurred as a function of suramin treatment.
# as §2
# Stable transfection of RS485 cells with an anti-sense lysyl oxidase expression vector. Cells were grown in 100 mm cell culture dishes. At approximately 70% confluence, they were transfected with the anti-sense murine lysyl oxidase expression vector pCLO3 (Giampuzzi et al., 2001) (20 μg DNA/plate) using the calcium phosphate precipitation method (Graham et al., 1973). As a control, RS485 cells were transfected with empty vector (pcDNA3). The transfected cells were selected using G418 (geneticin) at a final concentration of 400 μg/ml in the medium. Colonies were isolated from anti-sense lysyl oxidase and empty vector transfected RS485 cells using cloning cylinders (Southern et al., 1982) and cultured in 400 μg/ml G418. Cells were then plated onto 100 mm plates (250,000 cells/plate) without G418 and treated with 0 or 150 μM suramin. After 24 hours, cells were prepared for cell cycle and Northern analysis as described above.
# [6] = target: T1, lysyl oxidase (Mus musculus, UniProt P28301); test: Lysyl oxidase enzyme activity in PR4 cell culture media (tritiated tropoelastin substrate); assay type: biochemical
# T1 construct: endogenous in cells; conditioned serum-free medium
# T1 sequence (P28301 163-411): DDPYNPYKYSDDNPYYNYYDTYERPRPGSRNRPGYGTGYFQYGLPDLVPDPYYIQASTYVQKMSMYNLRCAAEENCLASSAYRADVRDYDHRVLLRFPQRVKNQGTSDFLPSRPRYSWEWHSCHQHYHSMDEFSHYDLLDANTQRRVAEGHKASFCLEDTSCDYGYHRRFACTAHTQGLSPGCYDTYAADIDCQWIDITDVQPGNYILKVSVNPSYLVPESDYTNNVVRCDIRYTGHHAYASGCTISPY
# Method: (§3) If lysyl oxidase enzyme activity were required for the normal phenotype of PR4 cells, then BAPN would cause re-transformation. Thus, growth curves were generated for PR4 cells in the presence of 0 or 400 μM BAPN.
# Lysyl oxidase enzyme activity. PR4 cells were plated in 100 mm cell culture plates and then grown and re-fed every two days as described above in the constant presence of 0, 200 and 400 μM BAPN for seven days until visually confluent. Cells were then re-fed with serum-free medium supplemented with 0.1% bovine serum albumin still in the constant presence or absence of BAPN. After 24 hours conditioned 0.3 ml aliquots of media samples were assayed in quadruplicate using a tritiated recombinant human tropoelastin as substrate as previously described (Bedell-Hogan et al., 1993). Incubations were performed at […] for 90 minutes (Hong et al., 1999) and data were expressed as total cpm released +/−SE per culture.
# [7] = test system: ras-transformed fibroblasts; test: Growth in soft agar of ras-transformed fibroblasts with ectopic lysyl oxidase expression, with BAPN; assay type: cell-based
# From the text: It has now been determined that the ability of lysyl oxidase to revert the phenotype of ras-transformed fibroblasts depends substantially on the pro-peptide domain and not on lysyl oxidase enzyme activity. Since diminished lysyl oxidase expression in some way contributes to the transformed phenotype, it had generally been assumed that lysyl oxidase enzyme activity is related to the tumor suppressor activity of lysyl oxidase, and, therefore, that diminished lysyl oxidase activity promotes the transformed phenotype. […] The lack of effect of BAPN on lysyl oxidase-dependent phenotype control is interesting. […] Given that BAPN is an irreversible inhibitor of lysyl oxidase (Tang et al., 1983), it follows that both extracellular and intracellular lysyl oxidase activity are susceptible to inhibition by BAPN.
# [8] = test system: PR4 cells; test: Growth curves and morphology of PR4 cells; assay type: cell-based; conditions: 400 μM BAPN
# Method: as §3
# as §1, with “Experiments were performed three times each with consistent findings.” left out
# [9] = anti-sense lysyl oxidase transfected clones
# [10] = empty vector transfected clones
smiles,measurement,setting,value
Cc1ccc(C(=O)Nc2ccc(S(=O)(=O)O)c3cc(S(=O)(=O)O)cc(S(=O)(=O)O)c23)cc1NC(=O)c1cccc(NC(=O)Nc2cccc(C(=O)Nc3cc(C(=O)Nc4ccc(S(=O)(=O)O)c5cc(S(=O)(=O)O)cc(S(=O)(=O)O)c45)ccc3C)c2)c1 [suramin],average increase in lysyl oxidase mRNA levels,[1]; nine anti-sense lysyl oxidase transfected clones,1.8 fold
same,average increase in lysyl oxidase mRNA levels,[1]; six empty vector-transfected clones,8 fold
same,induction of lysyl oxidase activity,[2],about 2.5 fold
same,decrease of growth rate,[3]; 100 μM suramin,38%
same,decrease of growth rate,[3]; 125 μM suramin,49%
same,morphology of RS485 cells,[3]; 150 μM suramin,flatter and contact inhibited
same,effect on growth rate of RS485 cells,[3]; 150 μM suramin (BAPN experiment),decreased the growth rate
same,decrease of growth rate,[3]; 150 μM suramin,56%
same,G1 %,[4]; 100 μM suramin,59.4 ± 1.3%
same,"G2, M %",[4]; 100 μM suramin,19.1 ± 7.9%
same,S %,[4]; 100 μM suramin,21.5 ± 2.4%
same,G1 %,[4]; 150 μM suramin,67.4 ± 0.2%
same,"G2, M %",[4]; 150 μM suramin,13.6 ± 1.9%
same,S %,[4]; 150 μM suramin,19.0 ± 1.7%
same,decrease in S phase,[5]; [9],6.9%
same,increase in percentage of cells in G1 phase,[5]; [9],10.6%
same,decrease of average number of cells in S phase,[5]; [10],13.5%
same,increase of average number of cells in G1,[5]; [10],20.8%
"N#CCCN [BAPN, β-aminopropionitrile]",lysyl oxidase enzyme activity in medium,[6]; PR4 cultures in continuous presence of 200 μM BAPN,no lysyl oxidase enzyme activity was detected
same,lysyl oxidase enzyme activity in medium,[6]; PR4 cultures in continuous presence of 400 μM BAPN,no lysyl oxidase enzyme activity was detected
same,effect on ability of ectopic lysyl oxidase expression to prevent growth in soft agar,[7],failed to block
same,effect on suramin-mediated inhibition of RS485 cell growth,[3]; 150 μM suramin and 400 μM BAPN combined,did not reverse or affect in any detectable way
same,effect on growth rate of RS485 cells,[3]; 400 μM BAPN,had no effect on the growth rate
same,effect on growth rate of PR4 cells,[8],did not affect the growth rate
same,effect on morphology of PR4 cells,[8],did not change the morphology
